Laboratory results taken from patent US20170349593A1, “BTK INHIBITORS” (MERCK SHARP & DOHME CORP., priority 2014, published 2017).

How the values were obtained:
[1] = target: T1, BTK enzyme (recombinant full-length BTK, hBTK) (Homo sapiens, UniProt Q06187); experiment: Btk enzyme activity assay (LANCE TR-FRET); type: biochemical; conditions: 50 pM hBTK, 25 μM ATP, 60 minute compound and enzyme incubation, concentration range 1 μM to 0.017 nM, read-out: BTK binding IC50
T1 construct: recombinant protein from baculovirus-transfected S 19 cells: full-length BTK, 6 HIS-tag cleaved; 6 HIS-tag (cleaved yes); made in house
T1 sequence (Q06187 whole entry): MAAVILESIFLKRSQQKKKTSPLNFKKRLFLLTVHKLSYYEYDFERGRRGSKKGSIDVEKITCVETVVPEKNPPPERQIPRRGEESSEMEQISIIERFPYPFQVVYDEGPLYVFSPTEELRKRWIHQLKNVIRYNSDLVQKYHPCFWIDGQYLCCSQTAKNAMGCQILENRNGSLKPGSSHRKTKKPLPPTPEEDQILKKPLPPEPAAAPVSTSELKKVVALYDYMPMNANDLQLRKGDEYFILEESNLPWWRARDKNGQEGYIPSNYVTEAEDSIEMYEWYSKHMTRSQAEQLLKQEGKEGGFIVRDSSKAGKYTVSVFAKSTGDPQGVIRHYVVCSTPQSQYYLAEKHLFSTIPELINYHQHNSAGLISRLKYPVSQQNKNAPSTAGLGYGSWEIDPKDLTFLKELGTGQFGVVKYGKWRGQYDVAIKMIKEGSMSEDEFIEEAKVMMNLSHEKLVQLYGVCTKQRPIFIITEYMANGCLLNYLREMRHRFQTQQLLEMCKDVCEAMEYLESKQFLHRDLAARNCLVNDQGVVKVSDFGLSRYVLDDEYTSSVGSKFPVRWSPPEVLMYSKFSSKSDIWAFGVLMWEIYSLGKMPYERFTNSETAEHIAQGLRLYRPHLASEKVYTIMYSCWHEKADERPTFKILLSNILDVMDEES

[2] = tested on: adenosine uptake into HeLa cells; experiment: [3H]Adenosine uptake assay; type: cell-based; conditions: Homo sapiens; accumulation of [3H]adenosine into HeLa cells; concentration range 10 μM to 0.032 nM; read-out: ADU inhibition IC50
How it was run: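 HeLa cells (25 000/well), plated overnight, were preincubated 30 minutes at ambient temperature with compound in HBSS + 5% FBS. Ten-point titrations ran from 10 μM to 0.032 nM final. [3H]adenosine was added from a 500 nM solution for 60 minutes, and uptake was measured by scintillation proximity counting; IC50 came from a 4-parameter fit.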

Row | SMILES | IC50 [1] | IC50 [2]
1 | C[C@@H]1CO[C@@H](c2nc(-c3ccc(C(=O)Nc4cc(C(F)(F)F)ccn4)cc3F)c3c(N)nccn23)CN1Cc1cnn(C)c1 [Example 72, 4-(8-amino-3-{(2R,5R)-5-methyl-4-[(1-methyl-1H-pyrazol-4-yl)methyl]morpholin-2-yl}imidazo[1,5-a]pyrazin-1-yl)-3-fluoro-N-[4-(trifluoromethyl)pyridin-2-yl]benzamide] | 1.45 nM | 138 nM
2 | C[C@@H]1CO[C@@H](c2nc(-c3ccc(C(=O)Nc4cc(C(F)(F)F)ccn4)cc3F)c3c(N)nccn23)CN1C1CCOCC1 [Example 73, 4-{8-amino-3-[(2R,5R)-5-methyl-4-(tetrahydro-2H-pyran-4-yl)morpholin-2-yl]imidazo[1,5-a]pyrazin-1-yl}-3-fluoro-N-[4-(trifluoromethyl)pyridin-2-yl]benzamide] | 2.67 nM | 122 nM
3 | C[C@H]1CO[C@@H](c2nc(-c3ccc(C(=O)Nc4cc(C(F)(F)F)ccn4)cc3F)c3c(N)nccn23)CN1Cc1cnn(C)c1 [Example 74, 4-(8-amino-3-{(2R,5S)-5-methyl-4-[(1-methyl-1H-pyrazol-4-yl)methyl]morpholin-2-yl}imidazo[1,5-a]pyrazin-1-yl)-3-fluoro-N-[4-(trifluoromethyl)pyridin-2-yl]benzamide] | 0.47 nM | 224 nM
4 | C[C@H]1CO[C@@H](c2nc(-c3ccc(C(=O)Nc4cc(C(F)(F)F)ccn4)cc3F)c3c(N)nccn23)CN1C1COC1 [Example 76, 4-{8-amino-3-[(2R,5S)-5-methyl-4-oxetan-3-ylmorpholin-2-yl]imidazo[1,5-a]pyrazin-1-yl}-3-fluoro-N-[4-(trifluoromethyl)pyridin-2-yl]benzamide] | 0.531 nM | 237 nM
5 | C[C@H]1CO[C@@H](c2nc(-c3ccc(C(=O)Nc4cc(C(F)(F)F)ccn4)cc3F)c3c(N)nccn23)CN1C(=O)C1(C)COC1 [Example 77, 4-(8-amino-3-{(2R,5S)-5-methyl-4-[(3-methyloxetan-3-yl)carbonyl]morpholin-2-yl}imidazo[1,5-a]pyrazin-1-yl)-3-fluoro-N-[4-(trifluoromethyl)pyridin-2-yl]benzamide] | 0.44 nM | 239 nM
6 | COCC(=O)N1C[C@H](c2nc(-c3ccc(C(=O)Nc4cc(C(F)(F)F)ccn4)cc3)c3c(N)nccn23)OC[C@@H]1C [Example 78, 4-{8-amino-3-[(2R,5S)-4-(methoxyacetyl)-5-methylmorpholin-2-yl]imidazo[1,5-a]pyrazin-1-yl}-N-[4-(trifluoromethyl)pyridin-2-yl]benzamide] | 0.738 nM | 260 nM
7 | C[C@H]1CO[C@@H](c2nc(-c3ccc(C(=O)Nc4cc(C(F)(F)F)ccn4)cc3)c3c(N)nccn23)CN1C(=O)C1(C)CC1 [Example 81, 4-(8-amino-3-{(2R,5S)-5-methyl-4-[(1-methylcyclopropyl)carbonyl]morpholin-2-yl}imidazo[1,5-a]pyrazin-1-yl)-N-[4-(trifluoromethyl)pyridin-2-yl]benzamide] | 0.51 nM | 107 nM
8 | CC(C)C(=O)N1C[C@H](c2nc(-c3ccc(C(=O)Nc4cc(C(F)(F)F)ccn4)cc3)c3c(N)nccn23)OC[C@@H]1C [Example 82, 4-{8-amino-3-[(2R,5S)-5-methyl-4-(2-methylpropanoyl)morpholin-2-yl]imidazo[1,5-a]pyrazin-1-yl}-N-[4-(trifluoromethyl)pyridin-2-yl]benzamide] | 0.546 nM | 262 nM
9 | C[C@H]1CO[C@@H](c2nc(-c3ccc(C(=O)Nc4cc(C(F)(F)F)ccn4)cc3F)c3c(N)nccn23)CN1C(=O)C1(C)CC1 [Example 85, 4-(8-amino-3-{(2R,5S)-5-methyl-4-[(1-methylcyclopropyl)carbonyl]morpholin-2-yl}imidazo[1,5-a]pyrazin-1-yl)-3-fluoro-N-[4-(trifluoromethyl)pyridin-2-yl]benzamide] | 0.548 nM | 189 nM
10 | CC(C)C(=O)N1C[C@H](c2nc(-c3ccc(C(=O)Nc4cc(C(F)(F)F)ccn4)cc3F)c3c(N)nccn23)OC[C@@H]1C [Example 87, 4-{8-amino-3-[(2R,5S)-5-methyl-4-(2-methylpropanoyl)morpholin-2-yl]imidazo[1,5-a]pyrazin-1-yl}-3-fluoro-N-[4-(trifluoromethyl)pyridin-2-yl]benzamide] | 0.738 nM | 141 nM
11 | C[C@H]1CC[C@@H](c2nc(-c3ccc(C(=O)Nc4cc(OC5CC5)ccn4)cc3)c3c(N)nccn23)CN1C(=O)N(C)C [Example 90, (2S,5R)-5-[8-amino-1-(4-{[4-(cyclopropyloxy)pyridin-2-yl]carbamoyl}phenyl)imidazo[1,5-a]pyrazin-3-yl]-N,N,2-trimethylpiperidine-1-carboxamide] | 0.448 nM | 14 nM

These reach a lower IC50 [1]. Values come first.

Row | IC50 [1] | IC50 [2] | SMILES
12 | 0.329 nM | 350 nM | C[C@H]1CO[C@@H](c2nc(-c3ccc(C(=O)Nc4cc(C(F)(F)F)ccn4)cc3F)c3c(N)nccn23)CN1C1CCOCC1 [Example 75, 4-{8-amino-3-[(2R,5S)-5-methyl-4-(tetrahydro-2H-pyran-4-yl)morpholin-2-yl]imidazo[1,5-a]pyrazin-1-yl}-3-fluoro-N-[4-(trifluoromethyl)pyridin-2-yl]benzamide]
13 | 0.423 nM | 288 nM | CO[C@H](C)C(=O)N1C[C@H](c2nc(-c3ccc(C(=O)Nc4cc(C(F)(F)F)ccn4)cc3F)c3c(N)nccn23)OC[C@@H]1C [Example 79, 4-(8-amino-3-{(2R,5S)-4-[(2R)-2-methoxypropanoyl]-5-methylmorpholin-2-yl}imidazo[1,5-a]pyrazin-1-yl)-3-fluoro-N-[4-(trifluoromethyl)pyridin-2-yl]benzamide]
14 | 0.4 nM | 188 nM | C[C@H](O)C(=O)N1C[C@H](c2nc(-c3ccc(C(=O)Nc4cc(C(F)(F)F)ccn4)cc3)c3c(N)nccn23)OC[C@@H]1C [Example 80, 4-(8-amino-3-{(2R,5S)-4-[(2S)-2-hydroxypropanoyl]-5-methylmorpholin-2-yl}imidazo[1,5-a]pyrazin-1-yl)-N-[4-(trifluoromethyl)pyridin-2-yl]benzamide]
15 | 0.363 nM | 188 nM | CC(=O)N1C[C@H](c2nc(-c3ccc(C(=O)Nc4cc(C(F)(F)F)ccn4)cc3)c3c(N)nccn23)OC[C@@H]1C [Example 83, 4-{3-[(2R,5S)-4-acetyl-5-methylmorpholin-2-yl]-8-aminoimidazo[1,5-a]pyrazin-1-yl}-N-[4-(trifluoromethyl)pyridin-2-yl]benzamide]
16 | 0.368 nM | 360 nM | C[C@H](O)C(=O)N1C[C@H](c2nc(-c3ccc(C(=O)Nc4cc(C(F)(F)F)ccn4)cc3F)c3c(N)nccn23)OC[C@@H]1C [Example 84, 4-(8-amino-3-{(2R,5S)-4-[(2S)-2-hydroxypropanoyl]-5-methylmorpholin-2-yl}imidazo[1,5-a]pyrazin-1-yl)-3-fluoro-N-[4-(trifluoromethyl)pyridin-2-yl]benzamide]
17 | 0.343 nM | 215 nM | CC(=O)N1C[C@H](c2nc(-c3ccc(C(=O)Nc4cc(C(F)(F)F)ccn4)cc3F)c3c(N)nccn23)OC[C@@H]1C [Example 88, 4-{3-[(2R,5S)-4-acetyl-5-methylmorpholin-2-yl]-8-aminoimidazo[1,5-a]pyrazin-1-yl}-3-fluoro-N-[4-(trifluoromethyl)pyridin-2-yl]benzamide]
18 | 0.297 nM | 47.5 nM | C[C@H]1CC[C@@H](c2nc(-c3ccc(C(=O)Nc4cc(C#N)ccn4)cc3)c3c(N)nccn23)CN1C(=O)C1CC1 [Example 89, 4-{8-amino-3-[(3R,6S)-1-(cyclopropylcarbonyl)-6-methylpiperidin-3-yl]imidazo[1,5-a]pyrazin-1-yl}-N-(4-cyanopyridin-2-yl)benzamide]
19 | 0.295 nM | 40.1 nM | C[C@H](O)C(=O)N1C[C@H](c2nc(-c3ccc(C(=O)Nc4cc(C5CC5)ccn4)cc3)c3c(N)nccn23)CC[C@@H]1C [Example 91, 4-(8-amino-3-{(3R,6S)-1-[(2S)-2-hydroxypropanoyl]-6-methylpiperidin-3-yl}imidazo[1,5-a]pyrazin-1-yl)-N-(4-cyclopropylpyridin-2-yl)benzamide]
20 | 0.215 nM | 22.4 nM | C[C@H]1CC[C@@H](c2nc(-c3ccc(C(=O)Nc4cc(C(F)F)ccn4)cc3)c3c(N)nccn23)CN1C(=O)N(C)C [Example 92, (2S,5R)-5-[8-amino-1-(4-{[4-(difluoromethyl)pyridin-2-yl]carbamoyl}phenyl)imidazo[1,5-a]pyrazin-3-yl]-N,N,2-trimethylpiperidine-1-carboxamide]
21 | 0.248 nM | 37.1 nM | C[C@H]1CC[C@@H](c2nc(-c3ccc(C(=O)Nc4cc(C(F)F)ccn4)cc3)c3c(N)nccn23)CN1C(=O)C1(O)CC1 [Example 93, 4-(8-amino-3-{(3R,6S)-1-[(1-hydroxycyclopropyl)carbonyl]-6-methylpiperidin-3-yl}imidazo[1,5-a]pyrazin-1-yl)-N-[4-(difluoromethyl)pyridin-2-yl]benzamide]
22 | 0.168 nM | 175 nM | C[C@H]1CC[C@@H](c2nc(-c3ccc(C(=O)Nc4cc(C(C)(F)F)ccn4)cc3)c3c(N)nccn23)CN1C(=O)CO [Example 95, 4-{8-amino-3-[(3R,6S)-1-(hydroxyacetyl)-6-methylpiperidin-3-yl]imidazo[1,5-a]pyrazin-1-yl}-N-[4-(1,1-difluoroethyl)pyridin-2-yl]benzamide]
23 | 0.168 nM | 69.8 nM | C[C@H]1CC[C@@H](c2nc(-c3ccc(C(=O)Nc4cc(C(C)(F)F)ccn4)cc3)c3c(N)nccn23)CN1C(=O)N(C)C [Example 96, (2S,5R)-5-[8-amino-1-(4-{[4-(1,1-difluoroethyl)pyridin-2-yl]carbamoyl}phenyl)imidazo[1,5-a]pyrazin-3-yl]-N,N,2-trimethylpiperidine-1-carboxamide]
